Results published in US11192867B2, “Microbiocidal oxadiazole derivatives” (SYNGENTA PARTICIPATIONS AG, priority 2016, dated 2021).

Columns and labels:
[1] = system: Puccinia recondita f. sp. Tritici; assay: Fungicidal activity against Puccinia recondita f. sp. Tritici / wheat / leaf disc preventative (brown rust); assay type: in vivo; details: foliar, 200 ppm in the applied formulation, wheat leaf segments cv. Kanzler, inoculated 1 day after application, vs untreated control, read-out: disease control
Procedure, shortened: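 Wheat cv. Kanzler leaf segments on agar sprayed with diluted compound, inoculated with brown rust spores 1 day later. Kept at 19° C., 75% rh, 12 h light/dark; percent disease control versus untreated segments scored 7 to 9 days after application, compounds tested at 200 ppm.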

[2] = system: Puccinia recondita f. sp. Tritici; assay: Fungicidal activity against Puccinia recondita f. sp. Tritici / wheat / leaf disc curative (brown rust); assay type: in vivo; details: foliar, 24 h, 200 ppm in the applied formulation, wheat leaf segments cv. Kanzler, applied 1 day after inoculation, vs untreated control, read-out: disease control
Description: Leaf disks or leaf segments of various plant species are cut from plants grown in a greenhouse. The cut leaf disks or segments are placed in multiwell plates (24-well format) onto water agar. The leaf disks are sprayed with a test solution before (preventative) or after (curative) inoculation. Compounds to be tested are prepared as DMSO solutions (max. 10 mg/ml) which are diluted to the appropriate concentration with 0.025% Tween20 just before spraying. The inoculated leaf disks or segments are incubated under defined conditions (temperature, relative humidity, light, etc.) according to the respective test system. A single evaluation of disease level is carried out 3 to 14 days after inoculation, depending on the pathosystem. Percent disease control relative to the untreated check leaf disks or segments is then calculated.
Wheat leaf segments cv. Kanzler are placed on agar in multiwell plates (24-well format). The leaf segments are then inoculated with a spore suspension of the fungus. Plates were stored in darkness at 19° C. and 75% relative humidity. The formulated test compound diluted in water was applied 1 day after inoculation. The leaf segments were incubated at 19° C. and 75% relative humidity under a light regime of 12 hours light/12 hours darkness in a climate cabinet and the activity of a compound was assessed as percent disease control compared to untreated when an appropriate level of disease damage appears in untreated check leaf segments (6 to 8 days after application).
The following compounds at 200 ppm in the applied formulation give at least 80% disease control in this test when compared to untreated control leaf disks under the same conditions, which show extensive disease development.

[3] = system: Phakopsora pachyrhizi; assay: Fungicidal activity against Phakopsora pachyrhizi / soybean / leaf disc preventative (Asian soybean rust); assay type: in vivo; details: foliar, 200 ppm in the applied formulation, soybean leaf disks, vs untreated control, read-out: disease control
Procedure, shortened: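 Preventative test: compound sprayed onto soybean leaf discs one day before spore inoculation of the lower leaf face. Incubation at 20 °C and 75% rh, first 24-36 h in darkness, then a 12 h light cycle. Disease control versus untreated discs read 12-14 days after application.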

[4] = system: Glomerella lagenarium (Colletotrichum lagenarium); assay: Fungicidal activity against Glomerella lagenarium (Colletotrichum lagenarium) liquid culture / cucumber / preventative (anthracnose); assay type: cell-based; details: Colletotrichum orbiculare, 72 h; 20 ppm in the applied formulation; liquid culture (PDB), growth inhibition measured photometrically 3 to 4 days after application; vs untreated control; read-out: disease control
Procedure, shortened: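 PDB broth seeded with cryo-stored conidia, added onto compound (DMSO solution) in 96-well plates; 24° C.; photometric growth read at 3–4 d post-application; % inhibition vs untreated check.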

CO/N=C/CNC(=O)c1ccc(-c2noc(C(F)(F)F)n2)cc1F [Compound 1.4, 2-fluoro-N-[(2E)-2-methoxyimino-ethyl]-4-[5-(trifluoromethyl)-1,2,4-oxadiazol-3-yl]benzamide]
≥ 80%: pest or weed control at 200 ppm [1] | pest or weed control at 200 ppm [2] | pest or weed control at 200 ppm [3] | inhibition of growth at 20 ppm [4]

CO/N=C\NC(=O)c1ccc(-c2noc(C(F)(F)F)n2)cc1 [Compound 1.5, N-[(Z)-methoxyiminomethyl]-4-[5-(trifluoromethyl)-1,2,4-oxadiazol-3-yl]benzamide]
≥ 80%: pest or weed control at 200 ppm [1] | pest or weed control at 200 ppm [2] | pest or weed control at 200 ppm [3] | inhibition of growth at 20 ppm [4]

CC(C=NOCCO)NC(=O)c1ccc(-c2noc(C(F)(F)F)n2)cc1 (stereo not drawn) [Compound 1.15, N-[2-(2-hydroxyethoxy-imino)-1-methyl-ethyl]-4-[5-(trifluoromethyl)-1,2,4-oxadiazol-3-yl]benzamide]
≥ 80%: pest or weed control at 200 ppm [1] | pest or weed control at 200 ppm [2] | pest or weed control at 200 ppm [3] | inhibition of growth at 20 ppm [4]

CC(C=NOCCN)NC(=O)c1ccc(-c2noc(C(F)(F)F)n2)cc1 (stereo not drawn) [Compound 1.21, N-[2-(2-aminoethoxy-imino)-1-methyl-ethyl]-4-[5-(trifluoromethyl)-1,2,4-oxadiazol-3-yl]benzamide]
≥ 80%: pest or weed control at 200 ppm [1] | pest or weed control at 200 ppm [2] | pest or weed control at 200 ppm [3]

CC(C=NO[C@@H](C)C(=O)O)NC(=O)c1ccc(-c2noc(C(F)(F)F)n2)cc1 (stereo partly drawn) [Compound 1.32, (2S)-2-[2-[[4-[5-(trifluoromethyl)-1,2,4-oxadiazol-3-yl]benzoyl]amino]propylideneamino] oxypropanoic acid]
≥ 80%: pest or weed control at 200 ppm [1] | pest or weed control at 200 ppm [2] | inhibition of growth at 20 ppm [4]

CC(C=NOCC=CCl)NC(=O)c1ccc(-c2noc(C(F)(F)F)n2)cc1 (stereo not drawn) [Compound 1.33, N-[2-(3-chloroallyloxy-imino)-1-methyl-ethyl]-4-[5-(trifluoromethyl)-1,2,4-oxadiazol-3-yl]benzamide]
≥ 80%: pest or weed control at 200 ppm [1] | pest or weed control at 200 ppm [2] | pest or weed control at 200 ppm [3] | inhibition of growth at 20 ppm [4]

CC(C=NOC/C=C\Cl)NC(=O)c1ccc(-c2noc(C(F)(F)F)n2)cc1 (stereo not drawn) [Compound 1.36, N-[2-[(Z)-3-chloroallyloxy]imino-1-methyl-ethyl]-4-[5-(trifluoromethyl)-1,2,4-oxadiazol-3-yl]benzamide]
≥ 80%: pest or weed control at 200 ppm [1] | pest or weed control at 200 ppm [2] | pest or weed control at 200 ppm [3] | inhibition of growth at 20 ppm [4]

CC(C=NOC(C)C(=O)O)NC(=O)c1ccc(-c2noc(C(F)(F)F)n2)cc1 (stereo not drawn) [Compound 1.37, 2-[2-[[4-[5-(trifluoromethyl)-1,2,4-oxadiazol-3-yl]benzoyl]amino]propylideneamino] oxypropanoic acid]
≥ 80%: pest or weed control at 200 ppm [1] | pest or weed control at 200 ppm [2] | inhibition of growth at 20 ppm [4]

CCON=CC(C)NC(=O)c1ccc(-c2noc(C(F)(F)F)n2)cc1 (stereo not drawn) [Compound 1.43, N-(2-ethoxyimino-1-methyl-ethyl)-4-[5-(trifluoromethyl)-1,2,4-oxadiazol-3-yl]benzamide]
≥ 80%: pest or weed control at 200 ppm [1] | pest or weed control at 200 ppm [2] | pest or weed control at 200 ppm [3] | inhibition of growth at 20 ppm [4]

C=CCON=CC(C)NC(=O)c1ccc(-c2noc(C(F)(F)F)n2)cc1 (stereo not drawn) [Compound 1.46, N-(2-allyloxyimino-1-methyl-ethyl)-4-[5-(trifluoromethyl)-1,2,4-oxadiazol-3-yl]benzamide]
≥ 80%: pest or weed control at 200 ppm [1] | pest or weed control at 200 ppm [2] | pest or weed control at 200 ppm [3] | inhibition of growth at 20 ppm [4]

CC(C=NOC1COC1)NC(=O)c1ccc(-c2noc(C(F)(F)F)n2)cc1 (stereo not drawn) [Compound 1.58, N-[1-methyl-2-(oxetan-3-yloxyimino)ethyl]-4-[5-(trifluoromethyl)-1,2,4-oxadiazol-3-yl]benzamide]
≥ 80%: pest or weed control at 200 ppm [1] | pest or weed control at 200 ppm [2] | pest or weed control at 200 ppm [3] | inhibition of growth at 20 ppm [4]

O=C(NCC=NOCCO)c1ccc(-c2noc(C(F)(F)F)n2)cc1 [Compound 1.60, N-[2-(2-hydroxyethoxy-imino)ethyl]-4-[5-(trifluoromethyl)-1,2,4-oxadiazol-3-yl]benzamide]
≥ 80%: pest or weed control at 200 ppm [1] | pest or weed control at 200 ppm [2] | pest or weed control at 200 ppm [3] | inhibition of growth at 20 ppm [4]

NCCON=CCNC(=O)c1ccc(-c2noc(C(F)(F)F)n2)cc1 [Compound 1.66, N-[2-(2-aminoethoxy-imino)ethyl]-4-[5-(trifluoromethyl)-1,2,4-oxadiazol-3-yl]benzamide]
≥ 80%: pest or weed control at 200 ppm [1] | pest or weed control at 200 ppm [2] | pest or weed control at 200 ppm [3] | inhibition of growth at 20 ppm [4]

O=C(NCC=NOC1CCCCO1)c1ccc(-c2noc(C(F)(F)F)n2)cc1 (stereo not drawn) [Compound 1.70, N-(2-tetrahydropyran-2-yloxyiminoethyl)-4-[5-(trifluoromethyl)-1,2,4-oxadiazol-3-yl]benzamide]
≥ 80%: pest or weed control at 200 ppm [1] | pest or weed control at 200 ppm [2] | pest or weed control at 200 ppm [3] | inhibition of growth at 20 ppm [4]

CCCON=CCNC(=O)c1ccc(-c2noc(C(F)(F)F)n2)cc1 [Compound 1.72, N-(2-propoxyiminoethyl)-4-[5-(trifluoromethyl)-1,2,4-oxadiazol-3-yl]benzamide]
≥ 80%: pest or weed control at 200 ppm [1] | pest or weed control at 200 ppm [2] | pest or weed control at 200 ppm [3] | inhibition of growth at 20 ppm [4]

C[C@@H](ON=CCNC(=O)c1ccc(-c2noc(C(F)(F)F)n2)cc1)C(=O)O [Compound 1.74, (2R)-2-[2-[[4-[5-(trifluoromethyl)-1,2,4-oxadiazol-3-yl]benzoyl]amino]ethylideneamino] oxypropanoic acid]
≥ 80%: pest or weed control at 200 ppm [1] | pest or weed control at 200 ppm [2] | pest or weed control at 200 ppm [3] | inhibition of growth at 20 ppm [4]

C[C@H](ON=CCNC(=O)c1ccc(-c2noc(C(F)(F)F)n2)cc1)C(=O)O [Compound 1.77, (2S)-2-[2-[[4-[5-(trifluoromethyl)-1,2,4-oxadiazol-3-yl]benzoyl]amino]ethylideneamino] oxypropanoic acid]
≥ 80%: pest or weed control at 200 ppm [1] | pest or weed control at 200 ppm [2] | inhibition of growth at 20 ppm [4]

O=C(NCC=NOCC=CCl)c1ccc(-c2noc(C(F)(F)F)n2)cc1 [Compound 1.78, N-[2-(3-chloroallyloxyimino)ethyl]-4-[5-(trifluoromethyl)-1,2,4-oxadiazol-3-yl]benzamide]
≥ 80%: pest or weed control at 200 ppm [1] | pest or weed control at 200 ppm [2] | pest or weed control at 200 ppm [3] | inhibition of growth at 20 ppm [4]

O=C(NCC=NOC/C=C\Cl)c1ccc(-c2noc(C(F)(F)F)n2)cc1 [Compound 1.81, N-[2-[(Z)-3-chloroallyloxy]iminoethyl]-4-[5-(trifluoromethyl)-1,2,4-oxadiazol-3-yl]benzamide]
≥ 80%: pest or weed control at 200 ppm [1] | pest or weed control at 200 ppm [2] | pest or weed control at 200 ppm [3] | inhibition of growth at 20 ppm [4]

CC(CNC(=O)c1ccc(-c2noc(C(F)(F)F)n2)cc1)=NO[C@H](C)C(=O)O [Compound 1.117, (2R)-2-[[1-methyl-2-[[4-[5-(trifluoromethyl)-1,2,4-oxadiazol-3-yl]benzoyl]amino]ethylidene]amino] oxypropanoic acid]
≥ 80%: pest or weed control at 200 ppm [1] | pest or weed control at 200 ppm [2] | inhibition of growth at 20 ppm [4]

CC(CNC(=O)c1ccc(-c2noc(C(F)(F)F)n2)cc1)=NO[C@@H](C)C(=O)O [Compound 1.120, (2S)-2-[[1-methyl-2-[[4-[5-(trifluoromethyl)-1,2,4-oxadiazol-3-yl]benzoyl]amino]ethylidene]amino] oxypropanoic acid]
≥ 80%: pest or weed control at 200 ppm [1] | pest or weed control at 200 ppm [2] | inhibition of growth at 20 ppm [4]

CC(CNC(=O)c1ccc(-c2noc(C(F)(F)F)n2)cc1)=NOC(C)C(=O)O (stereo not drawn) [Compound 1.125, 2-[[1-methyl-2-[[4-[5-(trifluoromethyl)-1,2,4-oxadiazol-3-yl]benzoyl]amino]ethylidene]amino] oxypropanoic acid]
≥ 80%: pest or weed control at 200 ppm [1] | pest or weed control at 200 ppm [2] | inhibition of growth at 20 ppm [4]
